The target of one assay is T1, ADAM10 (Homo sapiens, UniProt O14672).
T1 construct: purchased R & D Systems (Minneapolis, MN, USA)
T1 sequence (O14672 214-748): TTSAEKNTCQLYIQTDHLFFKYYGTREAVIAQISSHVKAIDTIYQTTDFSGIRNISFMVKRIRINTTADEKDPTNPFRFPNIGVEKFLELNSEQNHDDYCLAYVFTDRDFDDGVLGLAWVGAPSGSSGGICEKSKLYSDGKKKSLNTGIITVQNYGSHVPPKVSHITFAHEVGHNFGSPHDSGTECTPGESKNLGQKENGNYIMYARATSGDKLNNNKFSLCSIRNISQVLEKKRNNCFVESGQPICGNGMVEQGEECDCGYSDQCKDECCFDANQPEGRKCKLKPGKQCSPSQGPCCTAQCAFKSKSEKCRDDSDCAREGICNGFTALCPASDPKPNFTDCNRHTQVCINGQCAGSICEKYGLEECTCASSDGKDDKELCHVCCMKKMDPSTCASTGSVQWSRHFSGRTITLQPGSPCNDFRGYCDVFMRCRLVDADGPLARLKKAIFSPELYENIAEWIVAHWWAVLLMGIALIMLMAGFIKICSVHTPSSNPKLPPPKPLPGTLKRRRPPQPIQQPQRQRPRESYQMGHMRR
The assay is described as follows: ADAM10 enzyme assay with glycosylated substrate DM2. In kind it is biochemical. The note with it: for activity against ADAM10 (in words): SAR discussion. Here is the method: (§1) ADAM10 and ADAM17 assays. Both assays were performed as published previously by us. Briefly, both assays followed the same general protocol. In total, 5 μL of the 2× enzyme solution (20 nM) in an assay buffer (10 mM Hepes, 0.001% Brij-35, pH 7.5) were added to solid bottom black 384 plates (Nunc, ThermoFisher, Waltham, MA, USA, cat# 264705). Next, test compounds and pharmacological controls were added to the corresponding wells using a 384-pin tool device (V & P Scientific, San Diego, CA, USA). After 60 min of incubation at RT, the reactions were started via the addition of 5 μL of the 2× solutions of glycosylated substrate DM2 (20 μM). The reactions were incubated at RT for 2 h, after which the fluorescence was measured using a Biotek H1 multimode microplate imager (λexcitation = 360 nm, λemission = 460 nm). IC50 values were calculated by fitting normalized data to the sigmoidal log vs. the response equation utilizing a non-linear regression analysis from GraphPad Prizm 9.

For the next assay, the target named is T2, ADAM17 (Homo sapiens, UniProt P78536).
T2 construct: purchased R & D Systems (Minneapolis, MN, USA)
T2 sequence (P78536 215-824, species assumed): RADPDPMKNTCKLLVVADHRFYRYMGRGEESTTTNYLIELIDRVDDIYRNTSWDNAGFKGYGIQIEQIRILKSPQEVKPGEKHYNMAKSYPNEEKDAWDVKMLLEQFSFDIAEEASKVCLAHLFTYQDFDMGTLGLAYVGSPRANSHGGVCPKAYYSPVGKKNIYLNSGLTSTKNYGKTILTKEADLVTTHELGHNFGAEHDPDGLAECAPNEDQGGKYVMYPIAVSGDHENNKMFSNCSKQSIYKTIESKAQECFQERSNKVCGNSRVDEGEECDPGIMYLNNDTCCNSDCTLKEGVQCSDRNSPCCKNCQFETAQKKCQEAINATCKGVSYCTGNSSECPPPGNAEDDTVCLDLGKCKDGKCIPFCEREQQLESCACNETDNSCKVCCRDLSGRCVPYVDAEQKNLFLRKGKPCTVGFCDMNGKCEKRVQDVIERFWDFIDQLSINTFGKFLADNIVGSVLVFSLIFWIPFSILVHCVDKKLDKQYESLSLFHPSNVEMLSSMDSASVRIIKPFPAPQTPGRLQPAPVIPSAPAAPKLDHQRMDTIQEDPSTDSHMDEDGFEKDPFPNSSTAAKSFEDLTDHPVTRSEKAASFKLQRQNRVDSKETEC
The assay is described as follows: ADAM17 enzyme assay with glycosylated substrate DM2. In kind it is biochemical. The note with it: for selectivity against ADAM17 (in words): ADAM10 vs ADAM17. Here is the method: as §1

The subject of a further assay is TNFα. The assay is described as follows: RA serum marker ELISA, TNFα, CIA mice. The note with it: CID 3117694 50 mg/kg/day; indomethacin 2.5 mg/kg. Format: in vivo, C57 BL/6 mice. As for the experimental part:
(§2) The sample size for therapeutic evaluation was calculated using power analysis based on experimental data from similar studies. In a two-sided test and setting the α value at 0.05 and desired power at 0.95, the sample size turned out to be 5 per group. We also expected deaths during the experiments; therefore, we used the formula Nt = N/1-q, where Nt is the number of mice initially used, N is the number required at the end of the study, and q is the proportion of attrition, which is generally 10%. Thus, at the end of the study period, we expected to have data from at least 6 mice per group, which is enough to attain statistical significance if it exists. Data were analyzed using a one-way ANOVA followed by Dunnett’s test compared with the vehicle control. At the end of the study, the mice were anesthetized and sacrificed using CO2 euthanasia. The hind paws of the mice were subjected to a histopathological examination, and the serum was analyzed for CRP, TNF-α, IL-6, and IL-10, as described in the below sections.
(§3) RA serum marker analysis. Blood was collected from the tail vein, and 100 µL was used for the assays. All assays were conducted using the manufacturer’s instructions for the respective assay kits. The following assay kits were purchased: Mouse TNF-α GENLISA™ ELISA (Krishgen BioSystems cat#KB2145, Mumbai, India), Mouse IL-10 GENLISA™ ELISA (Krishgen BioSystems cat#KB2072), Mouse hsC-Reactive Protein, hs-CRP GENLISA™ ELISA (Krishgen BioSystems cat#KLM0318), Mouse IL-6 GENLISA™ ELISA (Krishgen BioSystems cat#KB2068).
Background: ELISA stands for enzyme-linked immunosorbent assay.

Another assay concerns IL-10. Kind of assay: RA serum marker ELISA, IL-10, CIA mice. In kind it is in vivo, C57 BL/6 mice. The note with it: CID 3117694 50 mg/kg/day; indomethacin 2.5 mg/kg. As for the experimental part:
as §2, §3

The test system of assay [1] is articular joints affected by RA. The assay is described as follows: Histopathology (H & E) of arthritic joint, CIA mice. In kind it is in vivo, C57 BL/6 mice. The settings on record: indomethacin 2.5 mg/kg/day. As for the experimental part: as §2, with “sections. Histology. Limbs from euthanized animals were preserved in buffered formalin, decalcified, embedded, sectioned, and stained with hematoxylin and eosin (H & E). Microscopic images were acquired using the Lx 400 microscope (Labomed, Fremont, CA, USA).” for “sections.”

The next assay relates to IL-6. Kind of assay: RA serum marker ELISA, IL-6, CIA mice. Format: in vivo, C57 BL/6 mice. The note with it: CID 3117694 50 mg/kg/day; indomethacin 2.5 mg/kg. Here is the method:
as §2, §3

The test system of the next assay is C-reactive protein (CRP). Kind of assay: RA serum marker ELISA, CRP, CIA mice. Format: in vivo, C57 BL/6 mice. The note with it: CID 3117694 50 mg/kg/day; indomethacin 2.5 mg/kg. Here is the method:
as §2, §3

Assay [2] has as its system collagen-induced arthritis (CIA) model. The assay is described as follows: CIA mouse model: clinical arthritis score and paw swelling. In kind it is in vivo, C57 BL/6 mice. The settings on record: indomethacin 2.5 mg/kg oral, scale 0–4. Here is the method: In vivo efficacy in the CIA mouse model. All animal studies were conducted in accordance with NSU IACUC guidelines. Study protocol #2021.04.DM5 was approved by NSU IACUC before the commencement of the studies. CID 3117694 and indomethacin were ground with a small amount of the dispersing agent (0.5% HPMC (3 cP)–0.5% Tween 80) using a mortar and a pestle and mixed repeatedly to form a smooth paste. The paste was moved to a graduated cylinder and filled up to the required volume with the dispersing agent to form a suspension, as described elsewhere. The test compound (10, 30, and 50 mg/kg) and indomethacin (2.5 mg/kg) were administered with a mouse gavage needle (gauge no: 18, BD, catalog number: 653902) through the oral route as a suspension with a 5 mL/kg dose volume (from day 0 to day 28). In this study, 6–8-week-old C57 BL/6 mice from Charles River (male and female) were used. Animals were randomly assigned to one of the following six groups: (1) normal (non-RA control), (2) RA control untreated, (3) RA control treated with 2.5 mg/kg/day indomethacin, and 3 test groups (CID 3117694 (10 mg/kg/day, 30 mg/kg/day, and 50 mg/kg/day)) to provide an estimate for the lead compound’s efficacy range. Each group had three males and three females assigned to the control for gender-based differences. Arthritis was induced in the right paws of the mice under anaesthesia. The left paw of the mice was used as a control. A total of 10 µL collagen from bovine (type II collagen) nasal septum emulsion (2 mg/mL) was injected into the right knee joint with a glass Hamilton syringe and 25 G needles for intraarticular (i.a.) injection, followed by a total of 100 µL Complete Freund’s adjuvant (CFA) emulsion was injected at the back of mice using a syringe with 25 G needles subcutaneously (s.c.). On day 14 after the first injection, the mice were injected, i.e., with 10 µL of collagen from the bovine nasal septum ([…]) and s.c. with a 100 µL CFA emulsion for a boost injection. Arthritis progression was monitored using a clinical arthritis scoring system (0–4), and paw swelling was measured with the help of a plethysmograph on days 0, 14, 21, and 28 after the induction of arthritis. […] After the administration of a primary dose of collagen from the bovine nasal septum, CFA scoring was assessed. Measurements were taken on days 0, 14, 21, and 28 after the induction of arthritis in induced paws (right paw) and non-arthritis paws (left paw). CID 3117694 (10 mg/kg/day, 30 mg/kg/day, and 50 mg/kg/day) and pharmacological control (indomethacin 2.5 mg/kg/day) treatment were given every day for 28 days beginning from day 1 via oral gavage in hydroxy-propyl-methyl cellulose (HPMC) suspension.

SMILES strings stand for the structures.

We go through 7 molecules from publication PMC10819767, “An ADAM10 Exosite Inhibitor Is Efficacious in an In Vivo Collagen-Induced Arthritis Model” (Pharmaceuticals, 2024).

Turning to `CCc1ccc(NC(=O)C(=O)NNC(=O)c2ccc(C(C)(C)C)cc2)cc1` [CID 2113284], the IC50 against ADAM10 and at ADAM17 was over 100 µM throughout.
Take `Cc1ccc(NC(=O)C(=O)NNC(=O)c2ccc(C(C)(C)C)cc2)cc1Cl` [CID 2213247]: the IC50 against ADAM10 and at ADAM17 was over 100 µM in each case.
`Cc1c(Cl)cccc1NC(=O)C(=O)NNC(=O)c1ccc(C(C)(C)C)cc1` [CID 2218294]: the half-inhibitory concentration (IC50) against ADAM10 and on ADAM17 was over 100 µM throughout.
With `COc1ccccc1NC(=O)C(=O)NNC(=O)c1ccccc1Cl` [CID 2273473], at ADAM10, the 50% inhibitory concentration (IC50) stood at 33 µM and the “activity against ADAM10 (in words)” value is “reduced affinity”. Further, on ADAM17, the IC50 was determined as 33 µM and the “selectivity against ADAM17 (in words)” value is on record as “no selectivity”.
For `Cc1ccccc1C(=O)NNC(=O)C(=O)Nc1cccc2ccccc12` [CID 2841765], at ADAM10, the IC50 turned out to be 2.8 µM and the “activity against ADAM10 (in words)” value was “retrieved the activity”. Moreover, at ADAM17, 2 µM corresponded to half-maximal inhibition (IC50) and the “selectivity against ADAM17 (in words)” value is given as “selectivity against ADAM17 was lost”.
As to `Cc1ccccc1NC(=O)C(=O)NNC(=O)c1ccc(Cl)cc1` [CID 2869359], the IC50 against ADAM10 and on ADAM17 was over 100 µM each time. For the same molecule, the “activity against ADAM10 (in words)” value on ADAM10 is reported as “did not rescue the activity”.
Take `COc1ccc2c(c1)c(CC(=O)O)c(C)n2C(=O)c1ccc(Cl)cc1` [indomethacin, reference compound]: in the assay with TNFα, the “TNFα blood level vs healthy control” value is “the same as that of the healthy controls”. Besides, the “IL-10 blood level vs healthy control” value in the assay on IL-10 is recorded as “the same as that of the healthy controls”. For the same molecule, the “histopathological findings (in words)” value in assay [1] was “presence of inflammation and hyperplasia”; in assay [1] (listed as Indomethacin), “only residual inflammation and hyperplasia”. In the assay with IL-6, the “IL-6 blood level vs healthy control” value is on record as “the same as that of the healthy controls”. The “CRP blood level vs healthy control” value in the assay on C-reactive protein (CRP) is “the same as that of the healthy controls”. Also, the disease score in assay [2] (day 21) turned out to be 2; in assay [2] (day 28), 1.

For orientation: IC50 means the concentration needed to halve the response being measured.
